# Like-named read-outs stand apart in the source and are kept apart here. Non-standard residues stand in square brackets, D forms with d. Residues, ends and D or L forms follow the SMILES beside them. dNMeCha = CN[C@H](CC1CCCCC1)C(=O)O; dCha = N[C@H](CC1CCCCC1)C(=O)O
# How the values were obtained:
# human thrombin = target: T1, human thrombin (Homo sapiens, UniProt P00734); assay: Inhibition of amidase activity of thrombin (chromogenic substrate), Kass; assay type: biochemical; details: substrate N-benzoyl-Phe-Val-Arg-p-nitroanilide, pH 7.4
# T1 construct: purified human thrombin Enzyme Research Laboratories, South Bend, Ind; purchased Enzyme Research Laboratories, South Bend, Ind
# Procedure, shortened: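 Human thrombin (8 NIH units/ml solution) with compound in 0.03M Tris, 0.15M NaCl, pH 7.4; chromogenic substrate hydrolysis followed at 405 nm. Free thrombin from standard curves gives bound enzyme and free inhibitor; Kass, an association equilibrium constant in L/mol, averaged over a compound concentration range.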
# factor Xa = target: T2, factor Xa (Homo sapiens, UniProt P00742); assay: Serine protease inhibition, factor Xa (chromogenic substrate), Kass; assay type: biochemical; details: substrate N-Benzoyl-Ile-Glu-Gly-Arg-p-nitroanilide
# T2 construct: Human factors X, Xa, IXa, XIa, and xIIa are purchased from Enzyme Research Laboratories; purchased Enzyme Research Laboratories, South Bend, Ind
# Procedure, shortened: (§1)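 Enzyme mixed with test compound in 0.03M Tris, 0.15M NaCl, pH 7.4, then p-nitroanilide substrate added (Bz-Ile-Glu-Gly-Arg-pNA for factor Xa; Bz-Phe-Val-Arg-pNA for trypsin; H-D-Ile-Pro-Arg-pNA for t-PA; H-D-Val-Leu-Lys-pNA for plasmin); hydrolysis followed at 405 nm. Free enzyme from standard curves gave bound enzyme and free inhibitor; Kass (L/mol) averaged over several compound concentrations.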
# Bovine trypsin = target: T3, Bovine trypsin (Bos taurus, UniProt P00760); assay: Serine protease inhibition, trypsin (chromogenic substrate), Kass; assay type: biochemical; details: substrate N-Benzoyl-Phe-Val-Arg-p-nitroanilide
# T3 construct: Bovine trypsin is purchased from Worthington Biochemicals, Freehold, N.J; purchased Worthington Biochemicals, Freehold, N.J
# T3 sequence (P00760 24-246): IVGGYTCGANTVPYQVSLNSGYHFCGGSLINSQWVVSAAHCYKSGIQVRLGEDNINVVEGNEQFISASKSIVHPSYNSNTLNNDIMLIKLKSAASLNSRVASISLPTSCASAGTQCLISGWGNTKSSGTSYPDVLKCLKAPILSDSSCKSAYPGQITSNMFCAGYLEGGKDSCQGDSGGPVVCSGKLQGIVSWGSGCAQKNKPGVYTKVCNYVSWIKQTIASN
# Procedure, shortened: as §1
# Human plasmin = target: T4, Human plasmin (Homo sapiens, UniProt P00747); assay: Serine protease inhibition, plasmin (chromogenic substrate), Kass; assay type: biochemical; details: substrate H-D-Val-Leu-Lys-p-nitroanilide
# T4 construct: Human plasmin is purchased from Boehringer Mannheim, Indianapolis, Ind; purchased Boehringer Mannheim, Indianapolis, Ind
# Procedure, shortened: as §1
# [1] = target: T5, tissue plasminogen activator (t-PA) (Homo sapiens, UniProt P00750); assay: Serine protease inhibition, t-PA (chromogenic substrate), Kass; assay type: biochemical; details: for Enzyme Kass, t-Pa: substrate H-D-Ile-Pro-Arg-p-nitroanilide
# T5 construct: purchased American Diagnostics, Greenwich, Conn
# Procedure, shortened: as §1
# Human Plasma [2] = assay: Anticoagulation in human plasma, thrombin time (TT); assay type: biochemical; details: concentration required to double the thrombin time
# Procedure, shortened: (§2)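 Compounds were added to human plasma over a range of concentrations. PT used Thromboplastin-C reagent with saline; APTT used a 120-second Actin preincubation followed by 0.02M CaCl2, and TT used bovine thrombin. Clotting times were read on a CoAScreener, and the concentration doubling clotting time was estimated by linear extrapolation.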
# Human Plasma [3] = assay: Anticoagulation in human plasma, activated partial thromboplastin time (APTT); assay type: biochemical; details: concentration required to double the APTT
# Procedure, shortened: as §2
# Human Plasma [4] = assay: Anticoagulation in human plasma, prothrombin time (PT); assay type: biochemical; details: concentration required to double the PT
# Procedure, shortened: as §2
# [5] = Index of bioavailability (plasma TT AUC, p.o. vs i.v.); details: rats, adjusted for dose
# Procedure: (§3) Male Sprague Dawley rats (350-425 gm, Harlan Sprague Dawley Inc., Indianapolis, Ind.) are anesthetized with xylazine (20 mg/kg, s.c.) and ketamine (120 mg/kg, s.c.) and maintained on a heated water blanket (37° C.). The jugular vein(s) is cannulated to allow for infusions.
# (§4) Plasma thrombin time (TT) and activated partial thromboplastin time (APTT) are measured with a fibrometer. Blood is sampled from a jugular catheter and collected in syringe containing sodium citrate (3.8%, 1 part to 9 parts blood). To measure TT, rat plasma (0.1 ml) is mixed with saline (0.1 ml) and bovine thrombin (0.1 ml, 30 U/ml in TRIS buffer; Parke Davis) at 37° C. For APTT, plasma (0.1 ml) and APTT solution (0.1 ml, Organon Teknika are incubated for 5 minutes (37° C.) and CaCl2 (0.01 ml, 0,025M) is added to start coagulation. Assays are done in duplicate and averaged.
# (§5) The time course of the effect of the thrombin inhibitor upon TT is determined after i.v bolus administration to anesthetized rats and after oral treatment of fasted conscious rats. Due to limitations of blood volume and the number of points required to determine the time course from time of treatment to the time when the response returns to pretreatment values, two populations of rats are used. Each sample population represents alternating sequential time points. The average TT over the time course is used to calculate area under the curve (AUC). The index of bioavailability is calculated by the formula shown below and is expressed as percent relative activity.
# (§6) The area under the curve (AUC) of the plasma TT time course is determined and adjusted for the dose. This index of bioavailability is termed "% Relative Activity" and is calculated as [formula]
# (§7) Compound solutions are prepared fresh daily in normal saline and are injected as a bolus or are infused starting 15 min before and continuing throughout the experimental perturbation which is 15 minutes in the arteriovenous shunt model and 60 minutes in the FeCl3 model of arterial injury and in the spontaneous thrombolysis model. Bolus injection volume is 1 ml/kg for i.v., and 5 ml/kg for p.o. and infusion volume is 3 ml/hr.
# [6] = rat, in vivo
# Procedure: as §3, §4, §5, §6, §7
# T4 sequence (P00747 581-810 limits assumed): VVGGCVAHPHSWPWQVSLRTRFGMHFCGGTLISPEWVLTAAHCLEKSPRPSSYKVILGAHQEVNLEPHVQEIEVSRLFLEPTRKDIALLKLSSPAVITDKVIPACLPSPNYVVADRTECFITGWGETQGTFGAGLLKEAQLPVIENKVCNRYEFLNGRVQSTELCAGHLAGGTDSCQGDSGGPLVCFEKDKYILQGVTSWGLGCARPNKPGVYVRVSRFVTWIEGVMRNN
# T4 sequence (P00747 97-580 partner limits assumed): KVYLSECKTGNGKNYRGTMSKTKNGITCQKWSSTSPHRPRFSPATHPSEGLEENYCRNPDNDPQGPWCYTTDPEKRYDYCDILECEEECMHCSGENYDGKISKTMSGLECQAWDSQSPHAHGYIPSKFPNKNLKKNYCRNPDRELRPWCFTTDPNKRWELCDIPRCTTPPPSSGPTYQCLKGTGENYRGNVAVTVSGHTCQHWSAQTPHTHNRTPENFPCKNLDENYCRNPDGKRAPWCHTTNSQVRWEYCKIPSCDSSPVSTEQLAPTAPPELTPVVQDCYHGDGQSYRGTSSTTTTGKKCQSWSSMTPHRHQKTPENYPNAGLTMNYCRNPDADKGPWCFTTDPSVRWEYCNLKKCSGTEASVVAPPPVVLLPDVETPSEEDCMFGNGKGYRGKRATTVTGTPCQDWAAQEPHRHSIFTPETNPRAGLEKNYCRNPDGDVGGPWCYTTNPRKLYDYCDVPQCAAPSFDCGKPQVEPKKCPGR
# T5 sequence (P00750 36-562): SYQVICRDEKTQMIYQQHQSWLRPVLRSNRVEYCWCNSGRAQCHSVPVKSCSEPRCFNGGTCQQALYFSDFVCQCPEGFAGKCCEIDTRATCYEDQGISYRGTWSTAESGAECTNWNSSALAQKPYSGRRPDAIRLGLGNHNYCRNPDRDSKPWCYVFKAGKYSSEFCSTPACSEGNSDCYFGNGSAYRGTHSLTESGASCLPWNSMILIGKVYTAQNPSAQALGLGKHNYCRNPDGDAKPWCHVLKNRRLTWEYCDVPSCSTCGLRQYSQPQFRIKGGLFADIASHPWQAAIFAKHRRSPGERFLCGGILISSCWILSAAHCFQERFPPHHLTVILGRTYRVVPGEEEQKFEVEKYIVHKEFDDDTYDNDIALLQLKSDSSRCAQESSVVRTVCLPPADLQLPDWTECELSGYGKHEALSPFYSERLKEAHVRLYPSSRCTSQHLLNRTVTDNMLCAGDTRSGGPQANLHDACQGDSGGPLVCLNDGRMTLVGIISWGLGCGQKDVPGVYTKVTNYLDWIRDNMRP
# T2 sequence (P00742 235-488 limits assumed): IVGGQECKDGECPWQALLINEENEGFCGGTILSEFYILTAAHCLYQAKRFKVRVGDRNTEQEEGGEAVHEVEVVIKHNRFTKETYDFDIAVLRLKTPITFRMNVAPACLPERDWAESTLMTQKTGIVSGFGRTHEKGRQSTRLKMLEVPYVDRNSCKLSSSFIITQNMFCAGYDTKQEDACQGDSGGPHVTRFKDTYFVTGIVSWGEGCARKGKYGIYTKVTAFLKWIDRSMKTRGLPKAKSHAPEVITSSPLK
# T2 sequence (P00742 41-179 partner limits assumed): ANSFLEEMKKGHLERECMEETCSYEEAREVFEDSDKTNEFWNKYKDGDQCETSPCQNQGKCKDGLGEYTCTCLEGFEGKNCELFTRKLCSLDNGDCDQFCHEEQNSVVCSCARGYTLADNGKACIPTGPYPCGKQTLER
SMILES,"Enzyme Kass, Human Thrombin (human thrombin)","Enzyme Kass, Xa (factor Xa)","Enzyme Kass, Trypsin (Bovine trypsin)","Enzyme Kass, Plasmin (Human plasmin)","Enzyme Kass, t-Pa [1]","2 × Clotting time, TT (Human Plasma [2])","2 × Clotting time, APTT (Human Plasma [3])","2 × Clotting time, PT (Human Plasma [4])","Index of Bioavailability, % Relative Activity [5]",t-Pa inhibition ([1]; at 13 μg/mL),"Index of Bioavailability, % Relative Activity [6]"
"CC(C)S(=O)(=O)N[C@H](Cc1ccccc1)C(=O)N1CCC[C@H]1C(=O)N[C@H](C=O)CCCNC(=N)N.Cl [Example 11, i-Pr-SO2 -D-Phe-Pro-Arg-H-HCl]",460 L/mol × 10^6,6.0 L/mol × 10^6,260 L/mol × 10^6,25 L/mol × 10^6,3.5 L/mol × 10^6,13 ng/mL,270 ng/mL,510 ng/mL,10%,–,–
"CN(C)S(=O)(=O)N[C@H](Cc1ccccc1)C(=O)N1CCC[C@H]1C(=O)N[C@H](C=O)CCCNC(=N)N.Cl [Example 12, Me2 NSO2 -D-Phe-Pro-Arg-H.HCl]",300 L/mol × 10^6,3.9 L/mol × 10^6,160 L/mol × 10^6,21 L/mol × 10^6,–,46 ng/mL,360 ng/mL,480 ng/mL,26%,100%,–
"Cl.N=C(N)NCCC[C@@H](C=O)NC(=O)[C@@H]1CCCN1C(=O)[C@@H](Cc1ccccc1)NS(=O)(=O)c1ccccc1 [Example 13, PhSO2 -D-Phe-Pro-Arg-H.HCl]",270 L/mol × 10^6,3.6 L/mol × 10^6,180 L/mol × 10^6,19 L/mol × 10^6,2.3 L/mol × 10^6,14 ng/mL,450 ng/mL,930 ng/mL,3%,–,–
"Cl.N=C(N)NCCC[C@@H](C=O)NC(=O)[C@@H]1CCCN1C(=O)[C@@H](Cc1ccccc1)NS(=O)(=O)c1ccc(F)cc1F [Example 14, 2,4-F-PhSO2 -D-Phe-Pro-Arg-H-HCl]",230 L/mol × 10^6,11 L/mol × 10^6,160 L/mol × 10^6,25 L/mol × 10^6,2.4 L/mol × 10^6,21 ng/mL,350 ng/mL,940 ng/mL,6%,–,–
"Cl.N=C(N)NCCC[C@@H](C=O)NC(=O)[C@@H]1CCCN1C(=O)[C@@H](Cc1ccccc1)NS(=O)(=O)c1ccc(C(=O)O)cc1 [Example 18, 4-(HO2 C)-C6 H4 SO2 -D-Phe-Pro-Arg-H.HCl]",70 L/mol × 10^6,2.0 L/mol × 10^6,43 L/mol × 10^6,7.0 L/mol × 10^6,1.1 L/mol × 10^6,120 ng/mL,"1,200 ng/ML","3,000 ng/ML",13%,–,–
"CCS(=O)(=O)N[C@H](CC1CCCCC1)C(=O)N1CCC[C@H]1C(=O)N[C@H](C=O)CCCNC(=N)N.Cl [Example 21, EtSO2 -D-Cha-Pro-Arg-H.HCl]",550 L/mol × 10^6,20 L/mol × 10^6,200 L/mol × 10^6,45 L/mol × 10^6,0.73 L/mol × 10^6,25 ng/mL,260 ng/mL,730 ng/mL,–,–,19%
"CC(=O)N[C@H](CC1CCCCC1)C(=O)N1CCC[C@H]1C(=O)N[C@H](C=O)CCCNC(=N)N.Cl [Example 28, Ac-D-Cha-Pro-Arg-H.HCl] (Ac-[dCha]-Pro-Arg-aldehyde)",26 L/mol × 10^6,1.1 L/mol × 10^6,12 L/mol × 10^6,0.61 L/mol × 10^6,0.035 L/mol × 10^6,92 ng/mL,"1,900 ng/ML","3,500 ng/ML",–,–,9%
"Cl.N=C(N)NCCC[C@@H](C=O)NC(=O)[C@@H]1CCCN1C(=O)[C@@H](Cc1ccccc1)NCC1CCCCC1 [Example 30, cyclohexyl-CH2 -D-phe-pro-Arg-H.HCl]",480 L/mol × 10^6,0.11 L/mol × 10^6,69 L/mol × 10^6,0.49 L/mol × 10^6,0.046 L/mol × 10^6,16 ng/mL,860 ng/mL,"1,200 ng/ML",1%,–,–
"CN[C@H](CC1CCCCC1)C(=O)N1CCC[C@H]1C(=O)N[C@H](C=O)CCCNC(=N)N.Cl [Example 31, Me-D-Cha-Pro-Arg-H.HCl] (H-[dNMeCha]-Pro-Arg-aldehyde)",590 L/mol × 10^6,5.6 L/mol × 10^6,160 L/mol × 10^6,7.7 L/mol × 10^6,0.037 L/mol × 10^6,18 ng/mL,420 ng/mL,720 ng/mL,–,–,13%
"CCOC(=O)N[C@H](Cc1ccccc1)C(=O)N1CCC[C@H]1C(=O)N[C@H](C=O)CCCNC(=N)N.Cl [Example 33, EtOCO-D-Phe-Pro-Arg-H.HCl]",170 L/mol × 10^6,2.3 L/mol × 10^6,240 L/mol × 10^6,16 L/mol × 10^6,2.5 L/mol × 10^6,22 ng/mL,390 ng/mL,"2,000 ng/ML",14%,–,–

# — patent US5602101A, “Antithrombotic agents” (priority 1994, dated 1997)
